From patent US12546776B2, “Modulation of protein degradation” (Orionis Biosciences, Inc., priority 2019, dated 2026)

Experiments:
[1] = target: T1, CRBN (Homo sapiens, UniProt Q96SW2); assay: MAPPIT-like ligand competition assay for CRBN binding in HEK293T cells (trimethoprim-lenalidomide hybrid ligand, luciferase reporter); assay type: cell-based; conditions: competition for binding to CRBN
T1 construct: expressed in transfected cells; host or cells: HEK293T

[2] = target: T2, CRBN-ASS1 interaction (Homo sapiens, UniProt Q96SW2); assay: MAPPIT cell microarray screen of ORF library for ligand-induced CRBN neosubstrates; assay type: cell-based; conditions: HEK293T cells, CC-220 at 10 μM, fluorescence reporter read 48 hours later
T2 construct: expressed in transfected cells; host or cells: HEK293T

[3] = target: T2, CRBN-ASS1 interaction; assay: Co-immunoprecipitation of Flag-ASS1 and HA-CRBN in HEK293T cells; assay type: cell-based; conditions: 1 μM and 3 μM, 24 hours
Text: FIGS. 3A-B Ligand-induced CRBN-ASS1 interaction in living cells—as assessed by co-immunoprecipitation analysis. In this study we examined the ability of Flag-tagged ASS1 (or Flag tagged gp130-ASS1 fusion protein, as identified in the assay described in FIG. 1) and HA-tagged CRBN to interact in living cells upon transfection and expression of each construct in HEK293T cells—in the presence or absence of the CRBN IMiD ligand CC220. Ability of HA-tagged CRBN to interact in response to CC220 with the known CRBN neosubstrate IKZF3 was also examined (with IKZF3 expressed as a Flag-tagged IKZF3 fusion protein). […] Western analysis was performed with an anti-HA antibody to determine extent of immunoprecipitated CRBN in each sample (expected to vary in dependence of CC220 exposure) and an anti-Flag antibody to determine extent of immunoprecipitated Flag-ASS1, Flag-gp130-ASS1 or Flag-IKZF3 in each sample (which would be expected to be the same). […]
In this study we assessed via co-immunoprecipitation of protein complexes the ability of the CRBN ligand CC220 to induce an interaction with ASS1 when expressed in HEK293 cells. […] FLAG-tagged ASS1 was detected using an anti-FLAG Ab (SIGMA) respectively (FIG. 3A, lower panel). […]

[4] = target: ASS1 (Homo sapiens, UniProt P00966+Q96SW2); assay: ASS1 degradation by Western blot in HEK293T cells co-transfected with FLAG-ASS1 and HA-CRBN; assay type: cell-based; conditions: 0.3-30 μM, 24 hours
Protocol: FIG. 4 Ligand-induced recruitment of ASS1 to CRBN is associated with degradation of ASS1 in living cells. In this study we examined whether ligand-induced recruitment of ASS1 to CRBN could lead to subsequent ASS1 degradation (as triggered by interaction with the CRBN E3 ligase). HEK293 cells were co-transfected with cDNA constructs encoding Flag-tagged ASS1 and HA-tagged CRBN and exposed to increasing concentration of CC220 for 24 hours. Samples were generated for Western blot analysis to determine steady state levels of ASS1 across the different experimental conditions, assessed using and anti-Flag antibody. As shown, loss of ASS1 expression (but not actin control protein expression) was observed specifically in response to CC220 exposure, and in a dose-dependent manner.
In this study we examined whether CC220 CRBN-ligand-induced recruitment of ASS1 to CRBN could lead to subsequent ASS1 degradation (as triggered by interaction with the CRBN E3 ligase). For this analysis, cells were transfected with FLAG-tagged ASS1 and HA-tagged CRBN encoding constructs, and any change in steady state levels of ASS1 in response to incubation of cells with CC220 for a specified time was assessed by Western blot analysis. […] Next, cells were lysed and a fraction of the lysate was analyzed via SDS-PAGE and Western Blot analysis with an anti-FLAG antibody (Sigma). […]

[5] = patients with AL amyloidosis during lenalidomide treatment; cited from earlier work

O=C1CC[C@H](N2Cc3c(OCc4ccc(CN5CCOCC5)cc4)cccc3C2=O)C(=O)N1 [CC-220]
inhibition of hybrid-ligand induced luciferase reporter activation (in words) [1]: specifically inhibit hybrid-ligand induced luciferase reporter activation in a dose dependent manner | ligand-induced ASS1 interaction with CRBN in cell microarray screen (in words) [2]: identified Argininosuccinate Synthase 1 (ASS1) as a novel CC220-induced CRBN neosubstrate | recruitment of ASS1 into CRBN complex by co-immunoprecipitation (in words) [3]: specifically induces the recruitment of ASS1 into a CRBN-CC220 complex | ASS1 steady state levels (Western blot, in words) [4]: decrease in a dose responsive manner

Nc1cccc2c1CN(C1CCC(=O)NC1=O)C2=O (stereo not drawn) [LEN, lenalidomide]
patients showing worsening of kidney function [5]: 66% | patients with severe kidney dysfunction [5]: 32%
